Laboratory results as given in PMC12903969, “Discovery of a Novel and Potent Kir4.1 Inhibitor as a Safe and Rapid‐Onset Antidepressant Agent in Mice” (Advanced Science, 2025).
“And” between values parts separate entries of the source, which are not always exact repeats. Equal entries are not always repeated.

How the values were obtained:
C57BL/6J mice [1] = experiment: Novelty-suppressed feeding test (NSFT); type: in vivo
Procedure: The mice were individually housed in new cages and deprived of food for 24 h. The testing equipment was a brightly lit plastic box measuring 40 × 40 × 30 cm^3 with a light intensity of 1100–1200 lux. Each mouse was positioned in a corner of the device with one food pellet located at the center. The latency to start chewing food was recorded within 5 min. Immediately thereafter, the mice were placed back in their home cage with pre‐measured food, and the amount consumed in the next 5 min was used as a baseline to account for appetite changes that might affect the outcome.

C57BL/6J mice [2] = experiment: DOI-induced head twitch response (HTR); type: in vivo; settings: 10 mg kg−1, 30-min test period
Procedure: Male C57BL/6J mice were habituated to the testing chambers for 30 min and 24 h after receiving acute doses of (S)‐ketamine (10 mg kg^−1, i.p.) or JX3212 (10 mg kg^−1, i.p.). Thirty minutes later, the mice received DOI at a dose of 5 mg kg^−1 (i.p.), and the head‐twitch response was scored over 30 min.

C57BL/6J mice after CSDS [3] = experiment: Chronic social defeat stress (CSDS) model, sucrose preference test; type: in vivo
Procedure: (§1) The 10‐day CSDS paradigm was conducted as previously described.^[ [24] ^] CD‐1 aggressive mice were singly housed in defeat cages on one side of a perforated plexiglass partition 24 h before the defeat session. Experimental C57BL/6J mice were placed daily on the resident cage side of a novel CD‐1 aggressor that rapidly initiated a physical attack on the intruder. After 10‐min of social defeat, the intruder mice were housed on the opposite side of the partition within a shared home cage, experiencing further sensory contact for the subsequent 24 h. In contrast, control mice were maintained in their home cages and allowed to explore the empty defeat cages for 10 min each day.
Mice were individually housed with two identical bottles containing either 1% sucrose solution or tap water for 24 h. The bottles were then replaced to eliminate potential positional bias, followed by an additional 24‐h period with the same solutions. Subsequently, the mice were provided with tap water for 24 h. During the experimental phase, new bottles filled with either 1% sucrose solution or tap water were presented for 24 h, and the bottles were changed every 12 h. The bottles were weighed both before and after the 24‐h test to assess consumption of each solution.

C57BL/6J mice after CSDS [4] = experiment: CSDS model, forced swim test; type: in vivo
Procedure: as §1
Mice were placed individually in a transparent glass cylinder (25 cm high, 10 cm wide) filled with water (temperature 23–25 °C) to a depth of 10 cm, and prevented from making contact with the bottom. Mice behaviors were videotaped from each side. The observation period lasted for 6 min, with the final 4 min used to measure immobile behavior, which was processed using the AnyMaze Tracking System (Stoelting).

C57BL/6J mice after CSDS [5] = experiment: CSDS model, social interaction test; type: in vivo; settings: single i.p. injection 10 mg kg−1
Procedure: as §1
C57BL/6J mice, comprising both control and experimental groups, were placed individually into the social open field with a plexiglass enclosure positioned along the side wall. Movement parameters, including the time spent in the interaction zone, corner zones, and locomotion, were monitored and analyzed over the two test sessions using the AnyMaze Tracking System. In the first session, the mice freely explored the arena for 2.5 min. Then, a new aggressive CD‐1 mouse was introduced into the plexiglass enclosure, and the experimental mice returned to the arena for the second 2.5‐min session. The social interaction ratio was determined as the ratio between the time the experimental mice spent in the interaction zone when the target CD‐1 was present and the time spent in the zone when it was absent.

mice [6] = experiment: Y-maze; type: in vivo; settings: chronic 10 mg kg−1 per day
Procedure: This test was designed to evaluate spatial working memory. Briefly, mice were individually placed in a symmetrical Y‐maze and allowed to explore for 8 min. Entries were counted only when both hind paws crossed the arm threshold. Correct spatial alternation was defined as an entry into all three arms in an uninterrupted sequence (e.g., ABC, BCA or CAB each representing one alternation). The alternation percentage was derived as: [correct alternations/(total entries–2)] × 100%. After each session, the walls and floor of the maze were wiped with 75% ethanol and allowed to dry before the next animal was tested.

C57BL/6J mice [7] = experiment: Open field test (OFT) after chronic administration; type: in vivo; settings: chronic 10 mg kg−1 per day
Procedure: This test was used to assess anxiety‐related behaviors in the mice. C57BL/6J mice were individually habituated to a 40 × 40 × 40 cm^3 open field arena under dim light for […]. Locomotor activity during the final 5 min was digitally recorded (30 fps) and analyzed using Tracking Master (Future Life Science (Shanghai) Co., Ltd., Shanghai, China). The primary endpoints included the total ambulatory distance (cm) and center‐zone exploration frequency (20 × 20 cm^2 central area).

mice [8] = experiment: Shuttle box test (SBT); type: in vivo
Procedure: This test was designed to measure learning and memory function in rodents. The shuttle box consists of two compartments connected by a freely passable gate. The mice were allowed to explore the test chamber freely for 5 min before the test to eliminate exploratory reflexes. Each mouse was placed in one compartment of the shuttle box. The conditioning protocol began with a 5‐s conditioned stimulus presentation of light (200 lux) and auditory tone (100 dB, 1000 Hz), followed immediately by a 3‐s footshock (300 µA) unconditioned stimulus. Escape to the opposite compartment during the conditioned stimulus presentation was scored as an active avoidance response, whereas escape occurring only after shock onset was recorded as […]. […] Each test session consisted of 40 trials with 10‐s inter‐trial intervals, with the number of active avoidance responses systematically recorded.

mice [9] = experiment: 21-day chronic administration: body weight, organ weight, serum biochemistry
mice [10] = experiment: Treadmill test (TT); type: in vivo; settings: chronic 10 mg kg−1 per day
Procedure: This test was designed to quantify locomotor endurance in rodents. The time (300 s) and speed (maximum: 30 rpm) parameters for the treadmill were set using a digital panel and the mice were placed in lanes. Gentle electrical probes (0.3 mA) served as motivational stimuli. Total distance traveled was automatically recorded using rotary encoder integration.

mice [11] = experiment: Rotarod test (RT); type: in vivo; settings: chronic 10 mg kg−1 per day
Procedure: The rotarod test was designed to evaluate the coordination and motor performance of rodents. The speed and time were set for the rod rotators. All experimental mice were allowed to adapt to a lower speed (5 rpm). For the formal test, the mice were placed on a rod spinning at 20 rpm, and the duration that the mice were able to hold on the rod at this speed was recorded. The maximum test duration was 20 min.

[12] = single i.p. injection 10 mg kg−1
[13] = serum, 10 mg/kg, 21-day chronic administration, individual animals

Structure (SMILES): CN[C@]1(c2ccccc2Cl)CCCCC1=O [(S)‐ketamine]
- NSFT latency to feed (in words) (C57BL/6J mice [1]; single dose 10 mg kg−1 i.p., 1 h after administration): significantly reduced the latency to feed
- number of DOI-induced head twitches vs vehicle (in words) (C57BL/6J mice [2]): significantly more
- SPT sucrose preference after CSDS, single mice (C57BL/6J mice after CSDS [3]; 10 mg/kg (Fig 3H)): 0.9625 and 0.9959 and 0.9967 and 0.7227 and 0.9713 and 0.6431 and 0.7826 and 0.9953
- CSDS: sucrose preference in SPT (in words) (C57BL/6J mice after CSDS [3]; [12]): increased sucrose preference
- FST immobility time after CSDS, single mice (C57BL/6J mice after CSDS [4]; 10 mg/kg (Fig 3I)): 77.33 and 102.37 and 98.48 and 95.78 and 108.86 and 103.57 and 122.58
- CSDS: immobility in FST (in words) (C57BL/6J mice after CSDS [4]; [12]): no significant impact
- CSDS: time spent in corners in SIT (in words) (C57BL/6J mice after CSDS [5]): shorter duration spent in the corners

Structure (SMILES): CN(C)CCCN1c2ccccc2CCc2ccccc21 [imipramine]
- Y-maze alternation percentage vs vehicle (in words) (mice [6]): significantly reduced
- NSFT antidepressant-like effect (in words) (C57BL/6J mice [1]; imipramine 15 mg kg−1, single administration): failed to produce antidepressant‐like effects
- food intake in home cage after NSFT (in words) (C57BL/6J mice [1]; repeated administration, vs vehicle): significant increase in food intake
- NSFT antidepressant-like response after repeated administration (in words) (C57BL/6J mice [1]; seven days, imipramine 15 mg kg−1, JX3212 3/10 mg kg−1): elicited significant antidepressant‐like responses
- OFT total and central distance traveled (in words) (C57BL/6J mice [7]): no pronounced differences
- shuttle box active avoidance responses (in words) (mice [8]; chronic 10 mg kg−1 per day): no significant differences
- SBT active avoidance responses, single mice (mice [8]; chronic 10 mg/kg per day (Fig 5G)): 27 and 32 and 29 and 20 and 23 and 22
- body weight during 21-day chronic administration (in words) (mice [9]; 10 mg kg−1 per day, vs vehicle): marked increase in body weight
- Body weight (mice [9]; 10 mg/kg, day 7, individual animals): 24.5 (2×) and 25.5 (2×) and 25.8 and 25.3 and 24.2 and 25.4 and 24.9 and 26
- Body weight (mice [9]; 10 mg/kg, day 8, individual animals): 25.5 and 24.5 and 24.8 (2×) and 26.1 and 24.4 and 25.3 (2×) and 26.2 and 25.8
- Body weight (mice [9]; 10 mg/kg, day 9, individual animals): 26.3 and 25.3 (2×) and 26 and 25.4 and 25.8 and 26.4 and 24.8 and 25 and 24.6
- Body weight (mice [9]; 10 mg/kg, day 10, individual animals): 26.1 and 26 (2×) and 25.3 (3×) and 25.5 and 25.2 and 26.3 and 24.9
- Body weight (mice [9]; 10 mg/kg, day 11, individual animals): 26.1 (2×) and 25.7 (2×) and 24.8 and 24.6 and 24.4 and 25.4 and 26 and 24.7
- Body weight (mice [9]; 10 mg/kg, day 12, individual animals): 26.1 and 26.9 and 25 (2×) and 27.4 and 25.8 (2×) and 26.2 and 24.9 and 26.6
- Body weight (mice [9]; 10 mg/kg, day 13, individual animals): 25.3 (3×) and 26.2 and 26.5 and 27.2 and 26.4 and 27.3 and 25.6 (2×)
- Body weight (mice [9]; 10 mg/kg, day 14, individual animals): 25.3 and 25.8 and 26.8 (2×) and 25.7 and 26.7 and 27.4 and 26.6 and 26.4 and 27.1
- Body weight (mice [9]; 10 mg/kg, day 15, individual animals): 27.1 and 25.5 and 25.4 and 25.6 and 26.4 (2×) and 25.8 and 27.3 and 26.3 and 26
- Body weight (mice [9]; 10 mg/kg, day 16, individual animals): 27.2 (2×) and 26.3 and 26.5 and 25.8 and 26.7 and 25.4 and 26.1 and 26.9 and 25.7
- serum alanine aminotransferase level (in words) (mice [9]; 21-day administration): significant increase in alanine aminotransferase levels
- serum aspartate aminotransferase and urea levels (in words) (mice [9]; 21-day administration): comparable
- serum creatinine level (in words) (mice [9]; 21-day administration): marked decreases in creatinine levels
- ALT (mice [9]; [13]): 39 and 34 and 31 and 33 and 48 and 37 and 52 and 40
- AST (mice [9]; [13]): 151 and 169 and 124 and 111 and 168 and 222 and 112 and 198 and 207
- Cr (mice [9]; [13]): 19 and 18 and 20 and 23 and 22
- treadmill running distance vs vehicle (in words) (mice [10]): notably reduced
- rotarod falling latency vs vehicle (in words) (mice [11]): notably reduced falling latency
